Experimental data: patent US8501816B2, “Antitussive compositions comprising memantine” (Cerecor, Inc., priority 2010, dated 2013)
Entries after “also recorded” stand apart in the source; their conditions may differ. Marks after values point to notes of the source that are not given here.

Columns and labels:
[1] = Pharmacokinetics of memantine after oral or buccal dosing in male beagle dogs (Example 2); assay type: in vivo, beagle dog; set-up: Cmax/Dose: unit not given beside the values
Method: The pharmacokinetics of memantine were evaluated after buccal administration in male beagle dogs. Memantine was formulated in water, 3.3 mg/mL sodium hydroxide in water, or 7.5 mg/mL sodium carbonate in water. All dogs received a 0.4 mg/kg dose of memantine. Plasma levels of memantine were determined by LC-MS/MS. Pharmacokinetic parameters were determined for the memantine plasma data.
For dosing, dogs were anesthetized with an IV injection of ketamine/diazepam, and maintained by isoflurane intubation during the buccal administration. The dosing solution was pipetted into a circular cylinder to concentrate the dosing solution on one area of the mucosa. At just prior to the 15 minute sample time point, the oral cavity was rinsed with 5 mL of water and dried with gauze Immediately after the rinse, the 15 minute sample was collected.

porcine buccal mucosa = assay: Memantine ex vivo buccal permeability; assay type: in vitro ADME
[2] = tested on: freezing behavior during cued fear conditioning; assay: Cued fear conditioning in mice; assay type: in vivo
Method: The effects of memantine on enhancing cognition were investigated with fear conditioning tests on mice. Specifically, the fear conditioning test exposed mice to a conditioned stimulus (a tone) and an unconditioned stimulus (a mild electric shock). The mice learned to associate the tone with the shock as reflected by freezing. After being adequately conditioned, the mice were administered memantine or a control (vehicle alone). […] Fear Conditioning: Fear conditioning mouse chambers (7''W×7''D×12''H; Coulbourne Instruments, […] Valley, Pa.) were housed in sound attenuating chambers. A camera was mounted on the ceiling of the chamber to capture mouse behavior (FreezeFrame software, Coulbourne Instruments, […] Valley, Pa.); data were analyzed by Freezeview software (Coulbourne Instruments, […] Valley, Pa.). Fear conditioning chambers were calibrated prior to each experiment to ensure that each chamber delivers the same shock intensity. […] Pavlovian fear conditioning refers to the learning of associations between a negative reinforcer (e.g., a mild electric foot shock/s), a novel context (e.g. a context) and/or a specific, neutral, cue (e.g., tone or white noise). To assess contextual and cued (tone) learning and memory, a standardized fear conditioning task developed for the evaluation of memory in rodents was used. Protocol: […] Cue-induced Conditioning Testing: Mice were tested for cued memory 48 hours after training. The cued conditioning test was conducted in an altered context (i.e., a different test chamber). […] Statistical Analysis: Data are represented as the mean and standard error to the mean. Data were analyzed by analysis of variance (ANOVA) followed by Fisher PLSD, or unpaired t-tests, when appropriate to test a planned comparison. An effect was considered significant if p<0.05. Statistical outliers that fell above or below two standard deviations from the mean were removed from the final analysis.

[3] = Pharmacokinetics of memantine after oral or buccal dosing in male beagle dogs (Example 2); assay type: in vivo, beagle dog; set-up: Cmax/Dose: unit not given beside the values; conditions: for AUC(0-inf) / AUC(0-t) / Cmax / Tmax / half-life: male, beagle, dog, plasma, 0.4 mg/kg
[4] = cited from earlier work
[5] = around pH 6.0; cited from earlier work
[6] = treated for dementia, recent review; cited from earlier work
H3-receptor = conditions: hypothalamus, after 5 mg/kg twice daily for 5 days; cited from earlier work
native NMDA receptors = conditions: in vitro; cited from earlier work
[7] = tested on: recombinant human histamine receptors; conditions: in vitro; cited from earlier work
[8] = tested on: citric acid induced cough; assay: Citric acid induced cough in conscious guinea pigs; conditions: for ≧15 Cumulative coughs/total number of guinea pigs: 1 hour pre-citric acid challenge; for Cumulative coughs evoked by citric acid, 0.1M Citric Acid / Cumulative coughs evoked by citric acid, 0.3M Citric Acid: MMT 10 mg/kg intraperitoneal
Method: Male Hartley guinea pigs (200-700 g) were studied and all experiments were first approved by the institutional Animal Care and Use Committee.
Animals were placed in a transparent chamber (Buxco Research Systems, Wilmington, N.C.) with a continuous flow of air and exposed to increasing concentrations of citric acid (0.01 M-0.3 M) is delivered by an ultrasonic nebulizer generating aerosol particles of 3-6 μm diameter. Coughs were counted during a 5 minute nebulization period and over the subsequent 5 minutes with the assistance of sound and pressure monitoring from the chamber. Respiratory rate and tidal volume were monitored throughout via a calibrated pressure transducer (Emka Technologies, Falls Church, Va.).
Each of these drugs was administered orally in half-log increments (e.g. 3 mg/kg, 10 mg/kg, 30 mg/kg) in an unpaired experimental design (each animal received only 1 dose of drug). The drugs were administered 60 minutes prior to citric acid challenge, which consisted of 5 minute challenges with aerosols of increasing concentrations of citric acid (0.01-0.3M), with 5 minute intervals in between escalating doses of the tussive stimulus.

[9] = MMT 0.4 mg/kg Buccal + 3.3 mg/ml NaOH
[10] = MMT 0.4 mg/kg Buccal, Control (water)
[11] = male, beagle, dog, plasma, 0.4 mg/kg, MMT 0.4 mg/kg Buccal + 7.5 mg/ml Na2CO3
[12] = male, beagle, dog, plasma, 0.4 mg/kg, MMT 0.4 mg/kg Buccal, Control (water)
[13] = MMT 0.4 mg/kg Buccal + 7.5 mg/ml Na2CO3
[14] = po, MMT 0.4 mg/kg Oral + 15 mg/kg NH4Cl
[15] = po, MMT 0.4 mg/kg Oral + 25 mg/kg NH4Cl
[16] = po, MMT 0.4 mg/kg Oral + 30 mg/kg NH4Cl
[17] = po, MMT 0.4 mg/kg Oral, ControlAve

CC12CC3CC(C)(C1)CC(N)(C3)C2 [Memantine, 3,5-dimethyltricyclo[3.3.1.1^3,7]decan-1-amine]
Cmax/Dose [1, 9]: 12.9 | Cmax/Dose [1, 10]: 6.7 | AUC(0-inf) [1, 11]: 184 ng·h/mL | Cmax [1, 11]: 54 ng/mL | AUC(0-inf) [1, 12]: 125 ng·h/mL | AUC(0-t) [1, 12]: 119 ng·h/mL | increase in permeability of memantine (porcine buccal mucosa; increase in pH from 5.5 to 9.0): over 100 fold | increase in permeability of memantine (porcine buccal mucosa; increase in pH from 8.0 to 9.0): about 3.8 fold | cue-induced fear conditioning, CS phase, vs vehicle-diphenhydramine 20 mg/kg ([2]; memantine 10 mg/kg IP + diphenhydramine 20 mg/kg): significantly increased cue-induced fear conditioning | post-CS freezing vs vehicle-diphenhydramine ([2]; memantine 20 mg/kg plus diphenhydramine): strong trend (p=0.052) toward a significant increase in post-CS freezing | Cmax/Dose ([3]; MMT 0.4 mg/kg Oral + 15 mg/kg NH4Cl): 6.8 | Cmax/Dose ([3]; MMT 0.4 mg/kg Oral + 25 mg/kg NH4Cl): 5.2 | Cmax/Dose ([3]; MMT 0.4 mg/kg Oral + 30 mg/kg NH4Cl): 5.4 | Cmax/Dose ([3]; MMT 0.4 mg/kg Oral, ControlAve): 5.2 | AUC(0-inf) [3, 9]: 112 ng·h/mL | AUC(0-t) [3, 9]: 108 ng·h/mL | Cmax [3, 9]: 52 ng/mL | Tmax [3, 9]: 0.25 h | half-life [3, 9]: 5.2 h | AUC(0-t) [3, 13]: 179 ng·h/mL | Tmax [3, 13]: 0.45 h | half-life [3, 13]: 4.5 h | Cmax [3, 10]: 23 ng/mL | Tmax [3, 10]: 0.75 h | half-life [3, 10]: 5.2 h | AUC(0-inf) [3, 14]: 256 ng·h/mL | AUC(0-t) [3, 14]: 233 ng·h/mL | Cmax [3, 14]: 25 ng/mL | Tmax [3, 14]: 2 h | half-life [3, 14]: 6.7 h | AUC(0-inf) [3, 15]: 179 ng·h/mL | AUC(0-t) [3, 15]: 169 ng·h/mL | Cmax [3, 15]: 20 ng/mL | Tmax [3, 15]: 1.5 h | half-life [3, 15]: 5.5 h | AUC(0-inf) [3, 16]: 168 ng·h/mL | AUC(0-t) [3, 16]: 163 ng·h/mL | Cmax [3, 16]: 25 ng/mL | Tmax [3, 16]: 1.1 h | half-life [3, 16]: 4.8 h | AUC(0-inf) [3, 17]: 210 ng·h/mL | AUC(0-t) [3, 17]: 190 ng·h/mL | Cmax [3, 17]: 22 ng/mL | Tmax [3, 17]: 1.7 h | half-life [3, 17]: 6.5 h | solubility ([4]; all physiological pHs): > 30 mg/mL | Biopharmaceutics Classification System (BCS) class ([4]; highly soluble/highly permeable): class I | ionization [5]: completely ionized | adverse effects reported, share of those treated [6]: < 10% | density of H3-receptor binding sites increased by (H3-receptor): 141±24% | potency of antagonism (native NMDA receptors): micromolar potency | effect at receptors [7]: no effect | ≧15 Cumulative coughs/total number of guinea pigs ([8]; 0.01 mg/kg po): 2/5 | ≧15 Cumulative coughs/total number of guinea pigs ([8]; 0.1 mg/kg po): 1/5 | Cumulative numbers of cough, median, citric acid 0.01M ([8]; 1 mg/kg intraperitoneally): 0.0 | Cumulative numbers of cough, median, citric acid 0.1M ([8]; 1 mg/kg intraperitoneally): 5.0 | Cumulative numbers of cough, median, citric acid 0.3M ([8]; 1 mg/kg intraperitoneally): 14.0 | ≧15 Cumulative coughs/total number of guinea pigs ([8]; 1 mg/kg po): 2/7 | Cumulative numbers of cough, median, citric acid 0.01M ([8]; 3 mg/kg intraperitoneally): 0.0 | Cumulative numbers of cough, median, citric acid 0.1M ([8]; 3 mg/kg intraperitoneally): 3.0 | Cumulative numbers of cough, median, citric acid 0.3M ([8]; 3 mg/kg intraperitoneally): 24.5 | ≧15 Cumulative coughs/total number of guinea pigs ([8]; 3 mg/kg po): 0/5 | Cumulative numbers of cough, median, citric acid 0.01M ([8]; 10 mg/kg intraperitoneally): 0.0 | Cumulative numbers of cough, median, citric acid 0.1M ([8]; 10 mg/kg intraperitoneally): 0.0 | Cumulative numbers of cough, median, citric acid 0.3M ([8]; 10 mg/kg intraperitoneally): 1.5* | Effect on cumulative number of coughs evoked by citric acid (0.01-0.3M) compared to controls ([8]; 10 mg/kg intraperitoneally): significantly reduced the cumulative number of coughs; also recorded: markedly reduced the number of cumulative coughs | ≧15 Cumulative coughs/total number of guinea pigs ([8]; 10 mg/kg po): 0/7 | Cumulative numbers of cough, median, citric acid 0.01M ([8]; 30 mg/kg intraperitoneally): 0.0 | Cumulative numbers of cough, median, citric acid 0.1M ([8]; 30 mg/kg intraperitoneally): 0.0* | Cumulative numbers of cough, median, citric acid 0.3M ([8]; 30 mg/kg intraperitoneally): 1.5* | Effect on cumulative number of coughs evoked by citric acid (0.01-0.3M) compared to controls ([8]; 30 mg/kg intraperitoneally): significantly reduced the cumulative number of coughs; also recorded: similarly reduced cough responses | ≧15 Cumulative coughs/total number of guinea pigs ([8]; 30 mg/kg po): 0/4 | Effect on cumulative coughs evoked by citric acid over vehicle ([8]; 1 and 3 mg/kg): no significant effect | Cumulative coughs evoked by citric acid, 0.1M Citric Acid ([8]; 0.5 hr pre-challenge): 2 ± 2 | Cumulative coughs evoked by citric acid, 0.3M Citric Acid ([8]; 0.5 hr pre-challenge): 5 ± 3 | Cumulative coughs evoked by citric acid, 0.1M Citric Acid ([8]; 1 hr pre-challenge): 1 ± 1 | Cumulative coughs evoked by citric acid, 0.3M Citric Acid ([8]; 1 hr pre-challenge): 7 ± 3 | Cumulative coughs evoked by citric acid, 0.1M Citric Acid ([8]; 2 hr pre-challenge): 0 ± 0 | Cumulative coughs evoked by citric acid, 0.3M Citric Acid ([8]; 2 hr pre-challenge): 7 ± 4 | Cumulative coughs evoked by citric acid, 0.1M Citric Acid ([8]; 4 hr pre-challenge): 6 ± 5 | Cumulative coughs evoked by citric acid, 0.3M Citric Acid ([8]; 4 hr pre-challenge): 15 ± 6 | Levels of cough, oral compared to parenteral administration ([8]; doses of 1 mg/kg or more (FIG. 8)): substantially reduced levels of cough compared to parenterally administered memantine | time to the first cough during the citric acid challenge ([8]; memantine 10 mg/kg vs vehicle, p=0.007): shorter for vehicle than memantine 10 mg/kg | Effect of single agent on citric acid (0.01-0.3M) induced cough ([8]; oral, 60 minutes prior, memantine 3, guaifenesin 100, diphenhydramine 10, benzonatate 30, ambroxol 100 mg/kg): failed to inhibit cough | Percentage of animals coughing ≧15 times, effect relative to controls ([8]; orally, doses around 0.1-1 mg/kg (FIG. 7)): reduces cough relative to controls
